Reference: US6339042B1, “Herbicidal N-cyclohexadienyl heteroaryloxyacetamides” (American Cyanamid Co., priority 1999, dated 2002)

Legend:
Conditions in all cases: three weeks after treatment
Echinochloa crus-galli [1] = assay: Pre-emergence herbicidal evaluation, ECHCG; assay type: in vivo
Text: (§1) The treated pots are then placed on greenhouse benches, watered and cared for in accordance with conventional greenhouse procedures.

Setaria viridis [2] = assay: Pre-emergence herbicidal evaluation, SETVI; assay type: in vivo
Text: as §1

Hordeum vulgare [3] = assay: Post-emergence herbicidal evaluation, HORVW
Apera spica venti [4] = assay: Pre-emergence herbicidal evaluation, APESV; assay type: in vivo
Text: as §1

Oryza sativum [5] = assay: Post-emergence herbicidal evaluation, ORYSA
Alopecurus myosuroides [6] = assay: Pre-emergence herbicidal evaluation, ALOMY; assay type: in vivo
Text: as §1

Galium aparine [7] = assay: Pre-emergence herbicidal evaluation, GALAP; assay type: in vivo
Text: as §1

Apera spica venti [8] = assay: Post-emergence herbicidal evaluation, APESV
Zea mays [9] = assay: Post-emergence herbicidal evaluation, ZEAMX
Amaranthus tuberculatus [10] = assay: Post-emergence herbicidal evaluation, AMATA; assay type: in vivo
Triticum aestivum [11] = assay: Post-emergence herbicidal evaluation, TRZAW
Lolium perenne [12] = assay: Pre-emergence herbicidal evaluation, LOLPE; assay type: in vivo
Text: as §1

Hordeum vulgare [13] = assay: Pre-emergence herbicidal evaluation, HORVW; assay type: in vivo
Text: as §1

Setaria viridis [14] = assay: Post-emergence herbicidal evaluation, SETVI
Lolium perenne [15] = assay: Post-emergence herbicidal evaluation, LOLPE
Zea mays [16] = assay: Pre-emergence herbicidal evaluation, ZEAMX; assay type: in vivo
Text: as §1

Echinochloa crus-galli [17] = assay: Post-emergence herbicidal evaluation, ECHCG
Alopecurus myosuroides [18] = assay: Post-emergence herbicidal evaluation, ALOMY
Protocol: The compounds of the invention are tested for pre- and post-emergence herbicidal activity.
Each pot is examined three weeks after treatment and phytotoxicity is assessed according to the rating system set forth below.
These acetone solutions are diluted with water and the resulting formulations applied at dosage levels equivalent of about 0.4 to 0.1 kg per hectare of test compound per pot. After spraying the plants are placed on greenhouse benches and are cared for in the usual manner, commensurate with conventional greenhouse practices.

Glycine max [19] = assay: Pre-emergence herbicidal evaluation, GLXMA; assay type: in vivo
Text: as §1

Triticum aestivum [20] = assay: Pre-emergence herbicidal evaluation, TRZAW; assay type: in vivo
Text: as §1

Oryza sativum [21] = assay: Pre-emergence herbicidal evaluation, ORYSA; assay type: in vivo
Text: as §1

Galium aparine [22] = assay: Post-emergence herbicidal evaluation, GALAP
Amaranthus tuberculatus [23] = assay: Pre-emergence herbicidal evaluation, AMATA; assay type: in vivo
Text: as §1

Glycine max [24] = assay: Post-emergence herbicidal evaluation, GLXMA

CCN(C(=O)COc1nnc(C(F)(F)F)s1)C1=CC(C)(C)CC(C)=C1 [Example 1]
6 (6 - Herbicidal effect): phytotoxicity rating APESV (Apera spica venti [4]; 0.100 kg/ha) | phytotoxicity rating LOLPE (Lolium perenne [15]; 0.100 kg/ha) | phytotoxicity rating ALOMY (Alopecurus myosuroides [18]; 0.100 kg/ha) | phytotoxicity rating ALOMY (Alopecurus myosuroides [18]; 0.200 kg/ha)
2 (2 - Slight effect): phytotoxicity rating ALOMY (Alopecurus myosuroides [6]; 0.100 kg/ha) | phytotoxicity rating LOLPE (Lolium perenne [12]; 0.100 kg/ha) | phytotoxicity rating HORVW (Hordeum vulgare [13]; 0.100 kg/ha) | phytotoxicity rating HORVW (Hordeum vulgare [13]; 0.200 kg/ha) | phytotoxicity rating SETVI (Setaria viridis [14]; 0.200 kg/ha) | phytotoxicity rating ZEAMX (Zea mays [16]; 0.400 kg/ha) | phytotoxicity rating ECHCG (Echinochloa crus-galli [17]; 0.100 kg/ha) | phytotoxicity rating GLXMA (Glycine max [19]; 0.400 kg/ha) | phytotoxicity rating GLXMA (Glycine max [19]; 0.800 kg/ha) | phytotoxicity rating TRZAW (Triticum aestivum [20]; 0.400 kg/ha)
9 (9 - Complete kill): phytotoxicity rating ECHCG (Echinochloa crus-galli [1]; 0.400 kg/ha) | phytotoxicity rating ECHCG (Echinochloa crus-galli [1]; 0.800 kg/ha) | phytotoxicity rating APESV (Apera spica venti [4]; 0.400 kg/ha) | phytotoxicity rating APESV (Apera spica venti [4]; 0.800 kg/ha) | phytotoxicity rating ALOMY (Alopecurus myosuroides [6]; 0.400 kg/ha) | phytotoxicity rating LOLPE (Lolium perenne [12]; 0.400 kg/ha) | phytotoxicity rating LOLPE (Lolium perenne [12]; 0.800 kg/ha) | phytotoxicity rating AMATA (Amaranthus tuberculatus [23]; 0.400 kg/ha) | phytotoxicity rating AMATA (Amaranthus tuberculatus [23]; 0.800 kg/ha)
8 (8 - Approaching complete kill): phytotoxicity rating ECHCG (Echinochloa crus-galli [1]; 0.200 kg/ha) | phytotoxicity rating SETVI (Setaria viridis [2]; 0.400 kg/ha) | phytotoxicity rating SETVI (Setaria viridis [2]; 0.800 kg/ha) | phytotoxicity rating APESV (Apera spica venti [4]; 0.200 kg/ha) | phytotoxicity rating APESV (Apera spica venti [8]; 0.200 kg/ha) | phytotoxicity rating APESV (Apera spica venti [8]; 0.400 kg/ha) | phytotoxicity rating LOLPE (Lolium perenne [15]; 0.200 kg/ha) | phytotoxicity rating LOLPE (Lolium perenne [15]; 0.400 kg/ha) | phytotoxicity rating ALOMY (Alopecurus myosuroides [18]; 0.400 kg/ha)
7 (7 - Good herbicidal effect): phytotoxicity rating SETVI (Setaria viridis [2]; 0.200 kg/ha) | phytotoxicity rating ALOMY (Alopecurus myosuroides [6]; 0.800 kg/ha) | phytotoxicity rating ECHCG (Echinochloa crus-galli [17]; 0.400 kg/ha)
0 (0 - No effect): phytotoxicity rating HORVW (Hordeum vulgare [3]; 0.100 kg/ha) | phytotoxicity rating HORVW (Hordeum vulgare [3]; 0.200 kg/ha) | phytotoxicity rating HORVW (Hordeum vulgare [3]; 0.400 kg/ha) | phytotoxicity rating ORYSA (Oryza sativum [5]; 0.100 kg/ha) | phytotoxicity rating ORYSA (Oryza sativum [5]; 0.200 kg/ha) | phytotoxicity rating GALAP (Galium aparine [7]; 0.100 kg/ha) | phytotoxicity rating ZEAMX (Zea mays [9]; 0.100 kg/ha) | phytotoxicity rating ZEAMX (Zea mays [9]; 0.200 kg/ha) | phytotoxicity rating ZEAMX (Zea mays [9]; 0.400 kg/ha) | phytotoxicity rating AMATA (Amaranthus tuberculatus [10]; 0.100 kg/ha) | phytotoxicity rating AMATA (Amaranthus tuberculatus [10]; 0.200 kg/ha) | phytotoxicity rating AMATA (Amaranthus tuberculatus [10]; 0.400 kg/ha) | phytotoxicity rating TRZAW (Triticum aestivum [11]; 0.100 kg/ha) | phytotoxicity rating TRZAW (Triticum aestivum [11]; 0.200 kg/ha) | phytotoxicity rating SETVI (Setaria viridis [14]; 0.100 kg/ha) | phytotoxicity rating ZEAMX (Zea mays [16]; 0.100 kg/ha) | phytotoxicity rating ZEAMX (Zea mays [16]; 0.200 kg/ha) | phytotoxicity rating GLXMA (Glycine max [19]; 0.100 kg/ha) | phytotoxicity rating GLXMA (Glycine max [19]; 0.200 kg/ha) | phytotoxicity rating TRZAW (Triticum aestivum [20]; 0.100 kg/ha) | phytotoxicity rating TRZAW (Triticum aestivum [20]; 0.200 kg/ha) | phytotoxicity rating ORYSA (Oryza sativum [21]; 0.100 kg/ha) | phytotoxicity rating ORYSA (Oryza sativum [21]; 0.200 kg/ha) | phytotoxicity rating GALAP (Galium aparine [22]; 0.100 kg/ha) | phytotoxicity rating GALAP (Galium aparine [22]; 0.200 kg/ha) | phytotoxicity rating AMATA (Amaranthus tuberculatus [23]; 0.100 kg/ha)
1 (1 - Trace effect): phytotoxicity rating TRZAW (Triticum aestivum [11]; 0.400 kg/ha) | phytotoxicity rating GALAP (Galium aparine [22]; 0.400 kg/ha)
4 (4 - Injury): phytotoxicity rating ECHCG (Echinochloa crus-galli [1]; 0.100 kg/ha) | phytotoxicity rating SETVI (Setaria viridis [2]; 0.100 kg/ha) | phytotoxicity rating GALAP (Galium aparine [7]; 0.200 kg/ha) | phytotoxicity rating GALAP (Galium aparine [7]; 0.400 kg/ha) | phytotoxicity rating GALAP (Galium aparine [7]; 0.800 kg/ha) | phytotoxicity rating HORVW (Hordeum vulgare [13]; 0.400 kg/ha) | phytotoxicity rating HORVW (Hordeum vulgare [13]; 0.800 kg/ha) | phytotoxicity rating ZEAMX (Zea mays [16]; 0.800 kg/ha) | phytotoxicity rating ECHCG (Echinochloa crus-galli [17]; 0.200 kg/ha) | phytotoxicity rating TRZAW (Triticum aestivum [20]; 0.800 kg/ha) | phytotoxicity rating GLXMA (Glycine max [24]; 0.100 kg/ha) | phytotoxicity rating GLXMA (Glycine max [24]; 0.400 kg/ha)
5 (5 - Definite injury): phytotoxicity rating APESV (Apera spica venti [8]; 0.100 kg/ha) | phytotoxicity rating GLXMA (Glycine max [24]; 0.200 kg/ha)
3 (3 - Moderate effect): phytotoxicity rating ORYSA (Oryza sativum [5]; 0.400 kg/ha) | phytotoxicity rating ALOMY (Alopecurus myosuroides [6]; 0.200 kg/ha) | phytotoxicity rating LOLPE (Lolium perenne [12]; 0.200 kg/ha) | phytotoxicity rating SETVI (Setaria viridis [14]; 0.400 kg/ha) | phytotoxicity rating ORYSA (Oryza sativum [21]; 0.400 kg/ha) | phytotoxicity rating AMATA (Amaranthus tuberculatus [23]; 0.200 kg/ha)
